US20100099730A1, “ANNELLATED PYRROLE COMPOUNDS FOR CANCER MANAGEMENT” (MERCKLE GMBH, priority 2006, published 2010)

Tests used:
[1] = test system: HCA-7 cells; experiment: MTT reduction assay, HCA-7 survival/proliferation; type: cell-based, human
Protocol: LS174T and CACO-2 were a generous gift of Prof. F. Dall'Olio (Dept. of Experimental Pathology, University of Bologna, Italy); HCA-7 cells were purchased from European Collection of Cell Cultures. These lines were cultured in Dulbecco's modified Eagle's Medium with 4.5 g/L glucose (DMEM), supplemented with 10% (v/v) heat-inactivated FBS, 2 mM L-glutamine, 100 U/ml penicillin and 100 μg/ml streptomycin. Cells were grown in monolayers, incubated at 37° C. in a humidified atmosphere of 95% air and 5% CO2 and routinely passaged using trypsin-EDTA 0.025%. For treatment with licofelone ([…] GmbH, Ulm, Germany), exponentially growing cells were trypsinized, seeded in regular medium (2×10^4 cells/well in 96-well plates; 1.2×10^5 cells/well in 24-well plates; 6×10^5 cells/well in 6-well plates; 1.5×10^6 cells in 25 cm^2 flasks) and incubated for 24 h. The medium was then replaced either with control medium or with medium containing 100, 125 or 150 μM licofelone. This drug was dissolved in dimethyl sulfoxide (DMSO) and diluted into the medium to obtain the required final concentration before each experiment. Fresh medium, alone or supplemented with licofelone, was completely replaced every 48 hours. To control for an effect of DMSO, control samples were treated in parallel with an equivalent concentration of this solvent. The effect of licofelone on HCA-7 survival/proliferation was determined colourimetrically using the MTT assay. MTT is a yellow-coloured tetrazolium salt that is taken up and cleaved only by metabolically active cells, which reduce it to a coloured, water-insoluble formazan salt. The solubilized formazan product can be quantified via absorbance at 570 nm measured using a 96-well-format spectrophotometer and the absorbance correlates directly with cell number. 2×10^4 cells/well were plated in a 100 μl volume in 96-well plates and grown for 24 h in DMEM supplemented with 10% FBS. Complete medium containing the indicated amount of licofelone, alone or in association with exogenous PGE2 and/or LTB4), was then replaced to each well. At the indicated times, 10 μl of MTT (5 mg/ml) was added and cells were incubated at 37° C. for 4 hours. The tetrazolium crystals were solubilized by the addition of 10% SDS in 0.01 N HCl. After overnight incubation at 37° C., the absorbance was measured at 570 nm using a 96-well spectrophotometric microplate reader. Survival/proliferation rate was calculated as follows (A570 treatment/A570 control×100). All determinations were carried out in triplicate.

[2] = test system: LTB4 production by HCA-7 cells; experiment: LTB4 level in HCA-7 culture medium, enzyme immunoassay; type: cell-based, human; details: 150 μM, 24 hours, serum-free medium
Protocol: (§1) For treatment with licofelone ([…] GmbH, Ulm, Germany), exponentially growing cells were trypsinized, seeded in regular medium (2×10^4 cells/well in 96-well plates; 1.2×10^5 cells/well in 24-well plates; 6×10^5 cells/well in 6-well plates; 1.5×10^6 cells in 25 cm^2 flasks) and incubated for 24 h. The medium was then replaced either with control medium or with medium containing 100, 125 or 150 μM licofelone. This drug was dissolved in dimethyl sulfoxide (DMSO) and diluted into the medium to obtain the required final concentration before each experiment. Fresh medium, alone or supplemented with licofelone, was completely replaced every 48 hours. To control for an effect of DMSO, control samples were treated in parallel with an equivalent concentration of this solvent. For determination of PGE2 and LTB4 production, HCA-7 were seeded in a 24-well plates at the density of 1.2×10^5 cells/well and grown in complete medium for 24 hours. Cells were then serum-starved overnight before being exposed to increasing doses of licofelone (100-150 μM) in serum-free medium for additional 24 hours. The harvested medium was centrifuged at 500×g for 5 min (4° C.) to remove floating cells and the supernatant was collected and assayed following customer instructions. The levels of PGE2 and LTB4 were measured by enzyme immunoassay. Results are expressed as picograms/ml of medium. […]

[3] = test system: PGE2 production by HCA-7 cells; experiment: PGE2 level in HCA-7 culture medium, enzyme immunoassay; type: cell-based, human; details: all doses tested (100-150 μM), 24 hours
Protocol: as §1

[4] = test system: HCA-7 cells; experiment: Cell-cycle distribution by flow cytometry (propidium iodide), sub-G1 cells; type: cell-based, human; details: 0-150 μM, after 48 hours of treatment
Protocol: For treatment with licofelone ([…] GmbH, Ulm, Germany), exponentially growing cells were trypsinized, seeded in regular medium (2×10^4 cells/well in 96-well plates; 1.2×10^5 cells/well in 24-well plates; 6×10^5 cells/well in 6-well plates; 1.5×10^6 cells in 25 cm^2 flasks) and incubated for 24 h. The medium was then replaced either with control medium or with medium containing 100, 125 or 150 μM licofelone. This drug was dissolved in dimethyl sulfoxide (DMSO) and diluted into the medium to obtain the required final concentration before each experiment. Fresh medium, alone or supplemented with licofelone, was completely replaced every 48 hours. To control for an effect of DMSO, control samples were treated in parallel with an equivalent concentration of this solvent. The cell-cycle distribution for control and drug-treated cells was determined after 24 and 48 hours of treatment. Cells were seeded at the density of 6×10^5 cells/well onto 6-well plates and allowed to adhere for 24 h. Cells were then incubated with licofelone for 24 and 48 hours and then harvested by trypsinization. […] Subsequently, DNA content was measured using a flow cytometer and the cell-cycle distribution was calculated using the Phoenix Multicycle for Windows cell-cycle analysis software. A minimum of 10'000 events were measured for each sample.

[5] = test system: HCA-7 cells; experiment: Cell morphology: phase-contrast and Hoechst 33342 fluorescence microscopy; type: cell-based, human; details: licofelone 150 μM
Protocol: Morphological changes in the nuclear chromatin of cells undergoing apoptosis were detected by staining with the DNA-binding fluorochrome bis-benzimide stain. Briefly, HCA-7 were seeded in a flat-bottomed 96-well plate at the density of 2×10^4 cells/well and grown for 24 hours in complete medium. Cells where then cultured in the presence or absence of licofelone 150 μM at the indicated times; at the end of incubation, Hoechst 33342 (1 μg/ml) was added to each well for at least 20 min. at 37° C. HCA-7 cells were then washed with phosphate-buffered saline (PBS), fixed in 4% formaldehyde and observed under a fluorescence microscope.

[6] = test system: caspase-3; experiment: Western blot of caspase-3 cleavage in HCA-7 cells; type: cell-based, human; details: licofelone 150 μM, 0-24 hours, maximum after 24 hours
Protocol: (§2) For Western blot analysis, cells were seeded in a 25 cm^2 flask at the density of 1.5×10^6 and grown in complete medium for 24 hours. At the end of incubation cells were scraped from flasks and lysed in a buffer containing 10 mM Tris, 1% SDS, 1 mM Na orthovanadate and a protease inhibitors cocktail. Samples containing 50 μg of protein were subjected to gel electrophoresis in 10% polyacrylamide gels in the presence of SDS. The proteins were then transferred electrophoretically to a Hybond-C nitrocellulose membrane at 300 V for 1 h at 4° C. The membrane was subsequently immersed in 0.5% Ponceau S in 1% acetic acid to stain the proteins and to confirm that equal amounts of protein were loaded in each lane and transferred efficiently. After incubation overnight in a blocking solution containing 5% bovine skim milk powder in 10 mM phosphate buffered saline (PBS, pH 7.4), the nitrocellulose membrane was incubated for 1 h with primary antibodies: anti COX-1, anti COX-2 and anti 5-LOX were used in HCA-7, Caco-2 and LS174T at a dilution of 1:500; anti Caspase-3 and anti PARP-1 were used in HCA-7 at the dilution of 1:250. The membrane was then washed with PBS buffer to remove the excess unbound antibodies and incubated for 1 h with HRP-conjugated secondary antibody, at a dilution of 1:1000. Detection was performed by using the ECL procedure developed by Amersham. […]

[7] = test system: PARP; experiment: Western blot of PARP cleavage in HCA-7 cells; type: cell-based, human; details: licofelone 150 μM, almost complete at 24 hours
Protocol: as §2

[8] = Plasma ML3000 level after immediate release dosage form; type: in vivo; details: for 8 hours

**Q.** What does the source list for `CC1(C)Cc2c(-c3ccccc3)c(-c3ccc(Cl)cc3)c(CC(=O)O)n2C1` [licofelone, [2,2-dimethyl-6-(4-chlorophenyl)-7-phenyl-2,3-dihydro-1H-pyrrolizine-5 yl]-acetic acid]?
**A.** reversal of antiproliferative effect by exogenous PGE2 or LTB4 ([1]; 150 μM licofelone, 48 hours, exogenous PGE2 and LTB4 added): neither PGE2 or LTB4 administration was able to reverse the antiproliferative effect; IC50 ([1]; Homo sapiens, HCA-7, after 24 hours of treatment): 125 ± 6.25 µM; IC50 ([1]; Homo sapiens, HCA-7, after 48 hours of treatment): 72 ± 3.6 µM; inhibition at 150 µM ([1]; Homo sapiens, HCA-7, licofelone 150 μM, read-out: inhibition of HCA-7 growth): ~90%; reduction of LTB4 levels with respect to untreated cells [2]: 85%; inhibition of PGE2 production [3]: strongly inhibited PGE2 production; accumulation of sub-G1 phase cells, maximum [4]: 85%; appearance of membrane blebbing after administration of the drug [5]: 10 to 12 h; morphological changes of nuclei after drug addition ([5]; Hoechst staining): 16-18 hours; cleavage of 34-kDa pro-enzyme caspase-3 to active 17-kDa form [6]: strong and time-dependent cleavage; degradation of PARP (85-kDa band) [7]: marked degradation of PARP; plasma ML3000 concentration maintained ([8]; dose 2.5 mg/kg): above 100 ng/mL; plasma ML3000 concentration maintained ([8]; dose 5 mg/kg): > 200 ng/mL
